Earlier results, collected in patent US10299493B2, “Dietary supplement compositions with enhanced delivery matrix, gummies, chocolates, atomizers and powders containing same, and methods of making same” (priority 2013, dated 2019).

Conditions: temperature of 20° C.

C/C=C/C=C/C(=O)[O-].[K+] [Potassium sorbate]
solubility in water: 58.2%
